# According to patent US20060069132A1, “Azolecarboxamide herbicides” (priority 2004, published 2006):
# Read-outs that look alike come from different tables or passages of the source.
# Columns and labels:
# barnyardgrass = experiment: Test B flooded paddy test; type: in vivo, Echinochloa crus-galli; settings: Echinochloa crus-galli, 336 h, 1000 g ai/ha, scale 0 to 100 (0 no effect, 100 complete control), read-out: Barnyardgrass plant response rating
# Summary of the method: (§1)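 Plants grow to 1- to 4-leaf stage (2–18 cm) for postemergence spraying, or to 2-leaf stage for the paddy test. Formulated compound is applied. Greenhouse holding lasts 13–15 days. Response is scored visually relative to controls, 0 no effect to 100 complete control; a dash means no result.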
# rice = experiment: Test B flooded paddy test; type: in vivo, Oryza sativa; settings: Oryza sativa, 336 h, 1000 g ai/ha, scale 0 to 100 (0 no effect, 100 complete control), read-out: Rice plant response rating
# Summary of the method: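 Treated at 2-leaf (paddy) or 1–4-leaf, 2–18 cm (postemergence); greenhouse 13–15 d; visual score vs control, 0 none to 100 complete control; dash = not tested.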
# giant foxtail = experiment: Test B pre-/postemergence herbicide test; type: in vivo, Setaria faberi; settings: Setaria faberi, 336 h; for pest or weed control at 125 g/ha: 125 g ai/ha; for pest or weed control at 500 g/ha: 500 g ai/ha
# Summary of the method: (§2)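 Herbicidal effect was judged by eye on a 0–100 scale after plants stood 13 to 15 days in the greenhouse following pre- or postemergence treatment with surfactant-containing formulations.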
# cocklebur = experiment: Test B pre-/postemergence herbicide test; type: in vivo, Xanthium strumarium; settings: Xanthium strumarium; for pest or weed control at 125 g/ha: 125 g ai/ha; for pest or weed control at 500 g/ha: 500 g ai/ha
# Summary of the method: (§3)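 Species tested were Echinochloa crus-galli, Ipomoea coccinea, Xanthium strumarium and Oryza sativa, treated both before emergence and at the 1- to 4-leaf stage; rice and barnyardgrass were also tested under flooding at 2 leaves. Greenhouse incubation lasted 13–15 days before visual 0–100 scoring.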
# lambsquarters = experiment: Test B pre-/postemergence herbicide test; type: in vivo, Chenopodium album; settings: Chenopodium album, 336 h; for pest or weed control at 125 g/ha: 125 g ai/ha; for pest or weed control at 500 g/ha: 500 g ai/ha
# Summary of the method: as §2
# wheat = experiment: Test B postemergence herbicide test; type: in vivo, Triticum aestivum; settings: Triticum aestivum, post-emergence, 336 h, postemergence, read-out: Wheat plant response rating
# Summary of the method: as §1
# Surinam grass = experiment: Test B pre-/postemergence herbicide test; type: in vivo, Urochloa decumbens; settings: Urochloa decumbens; for pest or weed control at 125 g/ha: 125 g ai/ha; for pest or weed control at 500 g/ha: 500 g ai/ha
# Summary of the method: as §2
# morningglory = experiment: Test B pre-/postemergence herbicide test; type: in vivo, Ipomoea coccinea; settings: Ipomoea, 336 h; for pest or weed control at 125 g/ha: 125 g ai/ha; for pest or weed control at 500 g/ha: 500 g ai/ha
# Summary of the method: as §3
# wild oat = experiment: Test B postemergence herbicide test; type: in vivo, Avena fatua; settings: Avena fatua, post-emergence, 336 h, postemergence, read-out: Oat, Wild plant response rating
# Summary of the method: as §1
# velvetleaf = experiment: Test B pre-/postemergence herbicide test; type: in vivo, Abutilon theophrasti; settings: Abutilon theophrasti, 336 h; for pest or weed control at 125 g/ha: 125 g ai/ha; for pest or weed control at 500 g/ha: 500 g ai/ha
# Summary of the method: as §2
# blackgrass = experiment: Test B postemergence herbicide test; type: in vivo, Alopecurus myosuroides; settings: Alopecurus myosuroides, post-emergence, 336 h, postemergence, visual rating, scale 0 (no effect) to 100 (complete control), read-out: Blackgrass plant response rating
# Summary of the method: as §1
# corn = experiment: Test B pre-/postemergence herbicide test; type: in vivo, Zea mays; settings: Zea mays; for plant injury at 125 g/ha: 125 g ai/ha
# Summary of the method: as §2
# large crabgrass = experiment: Test B pre-/postemergence herbicide test; type: in vivo, Digitaria sanguinalis; settings: Digitaria sanguinalis; for pest or weed control at 125 g/ha: 125 g ai/ha; for pest or weed control at 500 g/ha: 500 g ai/ha
# Summary of the method: as §2
# [1] = test system: small flower umbrella sedge; experiment: Test B flooded paddy test; type: in vivo, Cyperus difformis; settings: Cyperus difformis, 336 h, 1000 g ai/ha, scale 0 to 100 (0 no effect, 100 complete control), read-out: Sedge, Umbrella plant response rating
# Summary of the method: as §1
# pigweed = experiment: Test B pre-/postemergence herbicide test; type: in vivo, Amaranthus retroflexus; settings: Amaranthus retroflexus, 336 h; for pest or weed control at 125 g/ha: 125 g ai/ha; for pest or weed control at 500 g/ha: 500 g ai/ha
# Summary of the method: as §2
# [2] = post-emergence, postemergence, visual rating, scale 0 (no effect) to 100 (complete control), read-out: Cocklebur plant response rating
# [3] = 125 g ai/ha, visual rating, scale 0 (no effect) to 100 (complete control)
# [4] = 500 g ai/ha, scale 0 to 100, 0 is no effect, 100 is complete control
smiles,measurement,setting,value
"CCNC(=O)c1cc(NC(=O)c2cn(C(C)(C)C)nc2CC)ccc1F [Compound 241, 1-(1,1-dimethylethyl)-3-ethyl-N-[3-[(ethylamino)carbonyl]-4-fluorophenyl]-1H-pyrazole-4-carboxamide]",pest or weed control at 1000 g/ha,barnyardgrass,80%
same,plant injury at 1000 g/ha,rice,70%
same,pest or weed control at 125 g/ha,"giant foxtail; post-emergence, postemergence, visual rating, scale 0 (no effect) to 100 (complete control), read-out: Foxtail, Giant plant response rating",0%
same,pest or weed control at 500 g/ha,"giant foxtail; post-emergence, postemergence, scale 0 to 100, 0 is no effect, 100 is complete control, read-out: Foxtail, Giant plant response rating",0%
same,pest or weed control at 125 g/ha,"giant foxtail; pre-emergence, 0 = no effect, 100 = complete control, read-out: Foxtail, Giant plant response rating (0 to 100 scale)",10%
same,pest or weed control at 500 g/ha,"giant foxtail; pre-emergence, visual rating, 0 = no effect, 100 = complete control, read-out: Plant response rating, Foxtail, Giant",90%
same,pest or weed control at 125 g/ha,cocklebur; [2],20%
same,pest or weed control at 500 g/ha,cocklebur; [2],30%
same,pest or weed control at 125 g/ha,"cocklebur; pre-emergence, 0 = no effect, 100 = complete control, read-out: Cocklebur plant response rating (0 to 100 scale)",0%
same,pest or weed control at 500 g/ha,"cocklebur; pre-emergence, visual rating, 0 = no effect, 100 = complete control, read-out: Plant response rating, Cocklebur",0%
same,pest or weed control at 125 g/ha,"lambsquarters; post-emergence, postemergence, visual rating, scale 0 (no effect) to 100 (complete control), read-out: Lambsquarters plant response rating",30%
same,pest or weed control at 500 g/ha,"lambsquarters; post-emergence, postemergence, scale 0 to 100, 0 is no effect, 100 is complete control, read-out: Lambsquarters plant response rating",50%
same,pest or weed control at 125 g/ha,"lambsquarters; pre-emergence, 0 = no effect, 100 = complete control, read-out: Lambsquarters plant response rating (0 to 100 scale)",80%
same,pest or weed control at 500 g/ha,"lambsquarters; pre-emergence, visual rating, 0 = no effect, 100 = complete control, read-out: Plant response rating, Lambsquarters",100%
same,plant injury at 125 g/ha,wheat; [3],0%
same,plant injury at 500 g/ha,wheat; [4],10%
same,pest or weed control at 125 g/ha,"Surinam grass; post-emergence, postemergence, visual rating, scale 0 (no effect) to 100 (complete control), read-out: Surinam Grass plant response rating",10%
same,pest or weed control at 500 g/ha,"Surinam grass; post-emergence, postemergence, scale 0 to 100, 0 is no effect, 100 is complete control, read-out: Surinam Grass plant response rating",20%
same,pest or weed control at 125 g/ha,"Surinam grass; pre-emergence, 0 = no effect, 100 = complete control, read-out: Surinam Grass plant response rating (0 to 100 scale)",10%
same,pest or weed control at 500 g/ha,"Surinam grass; pre-emergence, visual rating, 0 = no effect, 100 = complete control, read-out: Plant response rating, Surinam Grass",90%
same,pest or weed control at 125 g/ha,"morningglory; post-emergence, postemergence, visual rating, scale 0 (no effect) to 100 (complete control), read-out: Morningglory plant response rating",20%
same,pest or weed control at 500 g/ha,"morningglory; post-emergence, postemergence, scale 0 to 100, 0 is no effect, 100 is complete control, read-out: Morningglory plant response rating",70%
same,pest or weed control at 125 g/ha,"morningglory; pre-emergence, 0 = no effect, 100 = complete control, read-out: Morningglory plant response rating (0 to 100 scale)",0%
same,pest or weed control at 500 g/ha,"morningglory; pre-emergence, visual rating, 0 = no effect, 100 = complete control, read-out: Plant response rating, Morningglory",0%
same,pest or weed control at 125 g/ha,wild oat; [3],0%
same,pest or weed control at 500 g/ha,wild oat; [4],20%
same,pest or weed control at 125 g/ha,"velvetleaf; post-emergence, postemergence, visual rating, scale 0 (no effect) to 100 (complete control), read-out: Velvetleaf plant response rating",10%
same,pest or weed control at 500 g/ha,"velvetleaf; post-emergence, postemergence, scale 0 to 100, 0 is no effect, 100 is complete control, read-out: Velvetleaf plant response rating",10%
same,pest or weed control at 125 g/ha,"velvetleaf; pre-emergence, 0 = no effect, 100 = complete control, read-out: Velvetleaf plant response rating (0 to 100 scale)",20%
same,pest or weed control at 500 g/ha,"velvetleaf; pre-emergence, visual rating, 0 = no effect, 100 = complete control, read-out: Plant response rating, Velvetleaf",100%
same,pest or weed control at 125 g/ha,blackgrass; 125 g ai/ha,0%
same,pest or weed control at 500 g/ha,blackgrass; 500 g ai/ha,10%
same,plant injury at 125 g/ha,"corn; post-emergence, postemergence, visual rating, scale 0 (no effect) to 100 (complete control), read-out: Corn plant response rating",0%
same,plant injury at 500 g/ha,"corn; post-emergence, postemergence, 500 g ai/ha, scale 0 to 100, 0 is no effect, 100 is complete control, read-out: Corn plant response rating",10%
same,plant injury at 125 g/ha,"corn; pre-emergence, 0 = no effect, 100 = complete control, read-out: Corn plant response rating (0 to 100 scale)",0%
same,"Corn plant response rating (crop injury, 0 = no effect, 100 = complete kill) at 500 g/ha","corn; pre-emergence, 500 g ai/ha, visual rating, 0 = no effect, 100 = complete control",30%
same,pest or weed control at 125 g/ha,"large crabgrass; post-emergence, postemergence, visual rating, scale 0 (no effect) to 100 (complete control), read-out: Crabgrass, Large plant response rating",0%
same,pest or weed control at 500 g/ha,"large crabgrass; post-emergence, postemergence, scale 0 to 100, 0 is no effect, 100 is complete control, read-out: Crabgrass, Large plant response rating",10%
same,pest or weed control at 125 g/ha,"large crabgrass; pre-emergence, 0 = no effect, 100 = complete control, read-out: Crabgrass, Large plant response rating (0 to 100 scale)",90%
same,pest or weed control at 500 g/ha,"large crabgrass; pre-emergence, visual rating, 0 = no effect, 100 = complete control, read-out: Plant response rating, Crabgrass, Large",100%
same,pest or weed control at 1000 g/ha,[1],80%
same,pest or weed control at 125 g/ha,"pigweed; post-emergence, postemergence, visual rating, scale 0 (no effect) to 100 (complete control), read-out: Pigweed plant response rating",30%
same,pest or weed control at 500 g/ha,"pigweed; post-emergence, postemergence, scale 0 to 100, 0 is no effect, 100 is complete control, read-out: Pigweed plant response rating",50%
same,pest or weed control at 125 g/ha,"pigweed; pre-emergence, 0 = no effect, 100 = complete control, read-out: Pigweed plant response rating (0 to 100 scale)",100%
same,pest or weed control at 500 g/ha,"pigweed; pre-emergence, visual rating, 0 = no effect, 100 = complete control, read-out: Plant response rating, Pigweed",100%
